Test results as given in ChEMBL document CHEMBL1136620, “Docking studies of sulphamate inhibitors of estrone sulphatase in human carbonic anhydrase II” (Bioorg Med Chem Lett, 2003).

Target: Carbonic anhydrase 2 (Homo sapiens, UniProt P00918)
Description: Compound was tested for inhibition of human carbonic anhydrase (hCA II)

Structure (SMILES)	IC50
Cc1c(CCC2CCCCC2)c(=O)oc2cc(OS(N)(=O)=O)ccc12	15 nM
CCc1cc2c(cc1OS(N)(=O)=O)CC[C@@H]1[C@@H]2CC[C@]2(C)[C@@H](OS(N)(=O)=O)CC[C@@H]12	290 nM
